According to DBAASP:
Converted amounts (≈) assume the structure as drawn. One block for each compound: values may come before it.

Legend:
Experiment in all cases: ≥ marks a high value that may be exact or a test limit, other limits are often not marked, values filed in µg/mL are converted to µM
[1] = test system: Staphylococcus aureus CMCC 26003
[2] = test system: Listeria monocytogenes ATCC 19115
[3] = test system: Listeria monocytogenes NCTC 11994
[4] = test system: Acinetobacter baumannii Q13-0717
[5] = test system: Staphylococcus aureus Q14-0320
[6] = test system: Escherichia coli K-12
[7] = test system: Pseudomonas aeruginosa Q14-0208
[8] = test system: Salmonella typhimurium SL1344
[9] = test system: Pseudomonas aeruginosa Q14-0890
[10] = test system: Klebsiella pneumoniae Q14-0095
[11] = test system: Staphylococcus aureus MRSA-15
[12] = test system: Campylobacter jejuni NCTC 11351
[13] = test system: Staphylococcus aureus NCTC 12493
[14] = test system: Acinetobacter baumannii Q12-0867
[15] = test system: Campylobacter jejuni
[16] = test system: Staphylococcus aureus ATCC 29213
[17] = test system: Klebsiella pneumoniae ATCC 700603
[18] = test system: Pseudomonas aeruginosa ATCC 27853
[19] = test system: Escherichia coli
[20] = test system: Pseudomonas aeruginosa
[21] = test system: Pseudomonas aeruginosa PAO1
[22] = test system: Enterococcus faecalis JH-2-2
[23] = test system: Staphylococcus aureus RN4220
[24] = test system: Staphylococcus aureus Q14-0325
[25] = test system: Klebsiella pneumoniae NCTC 13442

MIC [1]: ≥ 133 µM
MIC [2]: ≥ 133 µM
SMILES: CC[C@H](C)[C@H](NC(=O)[C@H](CCCN=C(N)N)NC(=O)[C@H](CCCN=C(N)N)NC(=O)[C@H](CC(C)C)NC(=O)[C@@H](N)Cc1ccccc1)C(=O)N[C@@H](CCCN=C(N)N)C(=O)N[C@H](C(N)=O)C(C)C [FLRRIRV]

MIC [3]: ≥ 52.7 µM
MIC [4]: ≥ 52.7 µM
MIC [5]: ≥ 52.7 µM
MIC [6]: 26.3 µM (≈ 64 µg/mL)
MIC [7]: ≥ 52.7 µM
MIC [8]: ≥ 52.7 µM
MIC [9]: 26.3 µM (≈ 64 µg/mL)
MIC [10]: ≥ 52.7 µM
MIC [11]: ≥ 52.7 µM
MIC [12]: ≥ 52.7 µM
MIC [13]: 26.3 µM (≈ 64 µg/mL)
MIC [14]: 26.3 µM (≈ 64 µg/mL)
MIC [15]: ≥ 52.7 µM
MIC [16]: > 52.7 µM
MIC [17]: 52.7 µM (≈ 128 µg/mL)
MIC [18]: 52.7 µM (≈ 128 µg/mL)
MIC [19]: 52.7 µM (≈ 128 µg/mL)
MIC [20]: 13.2 µM (≈ 32 µg/mL)
MIC [21]: 52.7 µM (≈ 128 µg/mL)
MIC [22]: ≥ 52.7 µM
MIC [23]: ≥ 52.7 µM
MIC [24]: 26.3 µM (≈ 64 µg/mL)
MIC [25]: ≥ 52.7 µM
SMILES: CC[C@H](C)[C@H](NC(=O)CNC(=O)[C@H](CCCN=C(N)N)NC(=O)CNC(=O)[C@H](CCCCN)NC(=O)[C@H](CC(N)=O)NC(=O)[C@H](CCCCN)NC(=O)[C@H](CC(=O)O)NC(=O)[C@H](CCCN=C(N)N)NC(=O)[C@H](CS)NC(=O)[C@H](Cc1ccc(O)cc1)NC(=O)[C@@H](NC(=O)[C@H](CCCCN)NC(=O)[C@H](CC(C)C)NC(=O)[C@H](CCCN=C(N)N)NC(=O)[C@@H](NC(=O)[C@H](Cc1ccccc1)NC(=O)[C@@H](N)CCCCN)C(C)C)[C@@H](C)CC)C(=O)N[C@@H](CO)C(=O)N[C@@H](Cc1ccccc1)C(=O)O [KFVRLKIYCRDKNKGRGISF]
